The values below come from patent publication US20180000085A1, “USE OF PICOLINAMIDE COMPOUNDS WITH FUNGICIDAL ACTIVITY” (DOW AGROSCIENCES LLC, priority 2014, published 2018).

One assay relates to Zymoseptoria tritici. Description: Leaf blotch of wheat (SEPTTR) disease control on wheat seedlings. Details: key to SEPTTR 1DP, HV activity at 100 ppm (% control rating) / SEPTTR 3DC, HV activity at 100 ppm (% control rating) / SEPTTR disease control, 1DP / SEPTTR disease control, 3DC / SEPTTR 1DP disease control rating, HV activity / SEPTTR 3DC disease control rating, HV activity / SEPTTR 3DC, LV activity at 125.1 g/H (% Control rating) / SEPTTR 1DP, LV activity at 125.1 g/H (% Control rating) / SEPTTR 1DP disease control rating, LV activity at 125.1 g/H / SEPTTR 3DC disease control rating, LV activity at 125.1 g/H / SEPTTR 3DC disease control rating, HV activity at 100 ppm / SEPTTR 1DP disease control rating, HV activity at 100 ppm / HV activity at 100 ppm SEPTTR 3DC (disease control rating) / HV activity at 100 ppm SEPTTR 1DP (disease control rating) / LV activity at 125.1 g/H SEPTTR 1DP (disease control rating) / LV activity at 125.1 g/H SEPTTR 3DC (disease control rating): A: > 80; B: ≤ 80; C: Not Tested; D: No Activity Observed in the Reported Assay. Format: in vivo.

A further assay has as its system Puccinia triticina. Briefly: Wheat brown rust (PUCCRT) disease control on wheat seedlings. It is filed as in vivo. Also on record: key to PUCCRT 3DC, HV activity at 100 ppm (% control rating) / PUCCRT disease control, 3DC / PUCCRT 1DP disease control rating, HV activity / PUCCRT 3DC disease control rating, HV activity / PUCCRT 3DC, LV activity at 125.1 g/H (% Control rating) / PUCCRT 1DP, LV activity at 125.1 g/H (% Control rating) / PUCCRT 3DC disease control rating, LV activity at 125.1 g/H / PUCCRT 1DP disease control rating, LV activity at 125.1 g/H / PUCCRT 3DC disease control rating, HV activity at 100 ppm / PUCCRT 1DP disease control rating, HV activity at 100 ppm / HV activity at 100 ppm PUCCRT 3DC (disease control rating) / LV activity at 125.1 g/H PUCCRT 1DP (disease control rating) / LV activity at 125.1 g/H PUCCRT 3DC (disease control rating): A: > 80; B: ≤ 80; C: Not Tested; D: No Activity Observed in the Reported Assay.

[1] abbreviates: low volume application, 125.1 g/H, 1 Day Protectant.
Setting [2] is: low volume application, 125.1 g/H, 3 Day Curative.
The mark [3] stands for this setting: low volume application, 125.1 g/H, 1 Day Protectant, wheat leaf blotch.
[4] abbreviates: low volume application, 125.1 g/H, 3 Day Curative, wheat leaf blotch.
[5] abbreviates: low volume application, 125.1 g/H, 1 Day Protectant, wheat brown rust.
Setting [6] is: low volume application, 125.1 g/H, 3 Day Curative, wheat brown rust.
[7] abbreviates: low volume application, 125.1 g/H, 1 day protectant.
Where [8] appears, read: low volume application, 125.1 g/H, 3 day curative.

Regarding `CCC(CC)[C@@H](Oc1ccc(C(F)(F)F)cc1)[C@H](C)OC(=O)[C@@H](NC(=O)c1nccc(OC)c1OCOC(C)=O)C(C)C` [Cmpd 653], the “SEPTTR 1DP, LV activity at 125.1 g/H (% Control rating)” value (from here on “SEPTTR 1DP … (% Control rating)”) with Zymoseptoria tritici (setting [1]) is “D”. Moreover, the “SEPTTR 3DC, LV activity at 125.1 g/H (% Control rating)” value (shortened to “SEPTTR 3DC … (% Control rating)”) in the assay with Zymoseptoria tritici (setting [2]) is recorded as “B (≤ 80)”. Moreover, the “PUCCRT 1DP, LV activity at 125.1 g/H (% Control rating)” value (“PUCCRT 1DP … (% Control rating)” below) in the assay on Puccinia triticina (setting [1]) is listed as “A (> 80)”. Besides, the “PUCCRT 3DC, LV activity at 125.1 g/H (% Control rating)” value (from here on “PUCCRT 3DC … (% Control rating)”) in the assay with Puccinia triticina (setting [2]) was “B (≤ 80)”.
As for `COc1cccc(O[C@@H]([C@H](C)OC(=O)[C@H](C)NC(=O)c2nccc(OC)c2OC(C)=O)C(C)(C)C)c1` [Cmpd 1062], the “LV activity at 125.1 g/H SEPTTR 1DP (disease control rating)” value with Zymoseptoria tritici (setting [3]) is “B (≤ 80)”. The “LV activity at 125.1 g/H SEPTTR 3DC (disease control rating)” value in the assay with Zymoseptoria tritici (setting [4]) is “B (≤ 80)”. Besides, the “LV activity at 125.1 g/H PUCCRT 1DP (disease control rating)” value in the assay on Puccinia triticina (setting [5]) is given as “A (> 80)”. Also, in the assay with Puccinia triticina (setting [6]), the “LV activity at 125.1 g/H PUCCRT 3DC (disease control rating)” value is “A (> 80)”.
As for `COc1ccnc(C(=O)N[C@@H](Cc2ccccc2)C(=O)O[C@@H](C)[C@H](Oc2cccc(F)c2)c2ccccc2)c1OCOC(C)=O` [Cmpd 576], the “SEPTTR 1DP … (% Control rating)” value in the assay with Zymoseptoria tritici (setting [1]) is recorded as “B (≤ 80)”. Further, the “SEPTTR 3DC … (% Control rating)” value with Zymoseptoria tritici (setting [2]) was “D”. The “PUCCRT 1DP … (% Control rating)” value in the assay with Puccinia triticina (setting [1]) is reported as “A (> 80)”. Besides, the “PUCCRT 3DC … (% Control rating)” value with Puccinia triticina (setting [2]) was “B (≤ 80)”.
For `CCCC(OC(=O)C(C)NC(=O)c1nccc(OC)c1OCOC(C)=O)C(Oc1ccccc1)C(C)C` (stereo not drawn) [Cmpd 1096], the “LV activity at 125.1 g/H SEPTTR 1DP (disease control rating)” value in the assay on Zymoseptoria tritici (setting [3]) was “D”. Also, the “LV activity at 125.1 g/H SEPTTR 3DC (disease control rating)” value in the assay on Zymoseptoria tritici (setting [4]) is recorded as “B (≤ 80)”. Further, the “LV activity at 125.1 g/H PUCCRT 1DP (disease control rating)” value in the assay with Puccinia triticina (setting [5]) was “D”. For the same compound, in the assay with Puccinia triticina (setting [6]), the “LV activity at 125.1 g/H PUCCRT 3DC (disease control rating)” value is “D”.
For the compound `Cc1ccc(O[C@H](CC(C)C)[C@H](C)OC(=O)[C@H](C)NC(=O)c2ncccc2O)c(Cl)c1` [Cmpd 1038], the “HV activity at 100 ppm SEPTTR 1DP (disease control rating)” value with Zymoseptoria tritici (HV application, 100 ppm, 1 Day Protectant, wheat leaf blotch) is “D”. In the assay on Zymoseptoria tritici (HV application, 100 ppm, 3 Day Curative, wheat leaf blotch), the “HV activity at 100 ppm SEPTTR 3DC (disease control rating)” value is given as “B (≤ 80)”. For the same compound, the “HV activity at 100 ppm PUCCRT 1DP (disease control rating)” value in the assay with Puccinia triticina (HV application, 100 ppm, 1 Day Protectant, wheat brown rust) is recorded as “A (> 80)”. Also, in the assay with Puccinia triticina (HV application, 100 ppm, 3 Day Curative, wheat brown rust), the “HV activity at 100 ppm PUCCRT 3DC (disease control rating)” value was “B (≤ 80)”.
Take `COc1ccnc(C(=O)N[C@@H](C)C(=O)O[C@@H](C)[C@H](Oc2ccc(C(F)(F)F)cc2)C(C)C)c1OCOC(C)=O` [Cmpd 618]: in the assay with Zymoseptoria tritici (setting [1]), the “SEPTTR 1DP … (% Control rating)” value is “B (≤ 80)”. Moreover, the “SEPTTR 3DC … (% Control rating)” value in the assay on Zymoseptoria tritici (setting [2]) is given as “A (> 80)”. For the same compound, the “PUCCRT 1DP … (% Control rating)” value with Puccinia triticina (setting [1]) is given as “A (> 80)”. Also, the “PUCCRT 3DC … (% Control rating)” value in the assay on Puccinia triticina (setting [2]) is reported as “A (> 80)”.
As to `CCC(CC)[C@@H](Oc1cc(F)ccc1F)[C@H](C)OC(=O)[C@@H](NC(=O)c1nccc(OC)c1OCOC(C)=O)C(C)C` [Cmpd 650], the “SEPTTR 1DP … (% Control rating)” value in the assay with Zymoseptoria tritici (setting [1]) was “D”. Besides, the “SEPTTR 3DC … (% Control rating)” value in the assay with Zymoseptoria tritici (setting [2]) is “B (≤ 80)”. Moreover, the “PUCCRT 1DP … (% Control rating)” value in the assay with Puccinia triticina (setting [1]) was “A (> 80)”. The “PUCCRT 3DC … (% Control rating)” value with Puccinia triticina (setting [2]) is given as “B (≤ 80)”.
On to `CCC(CC)[C@@H](Oc1ccc(F)cc1)[C@H](C)OC(=O)[C@@H](NC(=O)c1nccc(OC)c1O)C(C)C` [Cmpd 405], for which the “SEPTTR 1DP disease control rating, HV activity” value in the assay with Zymoseptoria tritici (HV application at 100 ppm, 1 Day Protectant, wheat leaf blotch) is “B (≤ 80)”. For the same compound, the “SEPTTR 3DC disease control rating, HV activity” value in the assay on Zymoseptoria tritici (HV application at 100 ppm, 3 Day Curative, wheat leaf blotch) was “B (≤ 80)”. In addition, in the assay with Puccinia triticina (HV application at 100 ppm, 1 Day Protectant, wheat brown rust), the “PUCCRT 1DP disease control rating, HV activity” value was “A (> 80)”. Besides, the “PUCCRT 3DC disease control rating, HV activity” value in the assay on Puccinia triticina (HV application at 100 ppm, 3 Day Curative, wheat brown rust) is “B (≤ 80)”.
With `COc1ccnc(C(=O)N[C@@H](C)C(=O)O[C@@H](C)[C@H](Oc2ccc(Cl)cc2)C2CCCC2)c1OC(C)=O` [Cmpd 921], the “SEPTTR 1DP disease control rating, LV activity at 125.1 g/H” value with Zymoseptoria tritici (setting [7]) was “A (> 80)”. Further, the “SEPTTR 3DC disease control rating, LV activity at 125.1 g/H” value in the assay on Zymoseptoria tritici (setting [8]) was “B (≤ 80)”. The “PUCCRT 1DP disease control rating, LV activity at 125.1 g/H” value with Puccinia triticina (setting [7]) is “A (> 80)”. The “PUCCRT 3DC disease control rating, LV activity at 125.1 g/H” value in the assay with Puccinia triticina (setting [8]) is given as “A (> 80)”.
